Patent publication US12344610B2, “APOL1 inhibitors and methods of use” (Maze Therapeutics, Inc., priority 2022, dated 2025)
Like-named read-outs stand apart in the source and are kept apart here.

Experiments:
[1] = tested on: Trypanosoma brucei Lister 427 VSG221 with APOL1 G0 recombinant protein; assay: APOL1 G0 trypanosome cell rescue assay (Example B5); format: cell-based; details: geometric mean of at least 2 assay runs, † = single assay run
Method in brief: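 Recombinant APOL1 protein, dispensed from a 2 μg/mL stock, and 250 T. brucei per well were co-incubated with test compound (0.4% DMSO) for 20 h. Viability: CellTiter-Glo luminescence.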

[2] = tested on: HEK293 cells overexpressing APOL1 G2; assay: APOL1 G2 HEK293 cell rescue assay (reversal of cell death caused by overexpression of APOL1); format: cell-based; details: geometric mean of at least 2 assay runs, † = single assay run
Method in brief: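 Each compound tested in duplicate wells on one plate per run, with values usually the geometric mean across at least two runs on different days, occasionally from one run only. Read-out: concentration giving half-maximal rescue of APOL1 G2 overexpression-induced death of HEK293 cells.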

[3] = Trypanosoma brucei, 20 h, read-out: APOL1 G0 Trypanosome Rescue EC50, Trypanosoma brucei Lister 427 VSG221 with APOL1 G0 recombinant protein, 20 hours, CellTiter-Glo
[4] = Homo sapiens, HEK293, HEK293 overexpressing APOL1 G2
[5] = read-out: APOL1 G0 Trypanosome Rescue EC50, Trypanosoma brucei Lister 427 VSG221 with APOL1 G0 recombinant protein, 20 hours, CellTiter-Glo

For `CC(COc1ccc2c(c1)CCC(=O)N2C)N1CCC2(CC1)C(=O)Nc1ccc(Cl)cc12` (single isomer, unassigned) [Compound 200], the EC50 [1, 3] was 185 nM and the EC50 ([2]; HEK293 overexpressing APOL1 G2) was 87.2 nM.
For `CC(COc1ccc2c(c1)CCC(=O)N2C)N1CCC2(CC1)C(=O)Nc1ccc(C#N)cc12` (single isomer, unassigned) [Compound 203, (S) or (R)-1′-{1-[(1-methyl-2-oxo-1,2,3,4-tetrahydroquinolin-6-yl)oxy]propan-2-yl}-2-oxo-1,2-dihydrospiro[indole-3,4′-piperidine]-5-carbonitrile], the EC50 [1, 3] was 565 nM and the EC50 ([2]; HEK293 overexpressing APOL1 G2) was 187 nM.
With `C[C@@H](COc1ccc(S(C)(=O)=O)c(C(F)F)c1)N1CCC2(CC1)C(=O)Nc1ccc(Cl)cc12` (single isomer, unassigned) [Compound 210] the EC50 [1, 3] was 63.8 nM and the EC50 [2, 4] was 63.3 nM.
Work on `C[C@@H](COc1ccc2c(cnn2C)c1)N1CCC2(CC1)C(=O)Nc1ccc(Cl)cc12` (single isomer, unassigned) [Compound 211] yielded an EC50 [1, 3] of 480 nM and an EC50 [2, 4] of 138 nM.
`C[C@@H](COc1ccc(S(C)(=O)=O)c(C(F)F)c1)N1CCC2(CC1)C(=O)Nc1ccc(C#N)cc12` (single isomer, unassigned) [Compound 212] showed an EC50 [1, 3] of 69.6 nM and an EC50 [2, 4] of 81.4 nM.
`CS(=O)(=O)c1ccc(OCCN2CCC3(CC2)C(=O)Nc2ccc(Cl)cc23)cc1C(F)CF` (single isomer, unassigned) [Compound 218, 5-chloro-1′-(2-{3-[(1S or 1R)-1,2-difluoroethyl]-4-methanesulfonylphenoxy}ethyl)-1,2-dihydrospiro[indole-3,4′-piperidin]-2-one] gave an EC50 [1, 5] of 65.1 nM and an EC50 [2, 4] of 25.6 nM.
Molecule `CS(=O)(=O)c1ccc(OCCN2CCC3(CC2)C(=O)Nc2ccc(Cl)cc23)cc1C(F)CF` (single isomer, unassigned) [Compound 219, 5-chloro-1′-(2-{3-[(1R or 1S)-1,2-difluoroethyl]-4-methanesulfonylphenoxy}ethyl)-1,2-dihydrospiro[indole-3,4′-piperidin]-2-one] has an EC50 [1, 5] of 22.3 nM and an EC50 ([2]; HEK293 overexpressing APOL1 G2) of 26.3 nM.
With `CS(=O)(=O)c1ccc(OCCN2CCC3(CC2)C(=O)Nc2ccc(C#N)cc23)cc1C(F)CF` (single isomer, unassigned) [Compound 221, 1′-(2-{3-[(1S or 1R)-1,2-difluoroethyl]-4-methanesulfonyl-phenoxy}ethyl)-2-oxo-1,2-dihydrospiro [indole-3,4′-piperidine]-5-carbonitrile] the EC50 [1, 3] was 75 nM and the EC50 ([2]; HEK293 overexpressing APOL1 G2) was 47.4 nM.
For `CC(COc1ccc(C2(S(C)(=O)=O)COC2)cc1)N1CCC2(CC1)C(=O)Nc1ccc(C#N)cc12` (single isomer, unassigned) [Compound 263, (S) or (R)-1′-{1-[4-(3-methanesulfonyloxetan-3-yl)phenoxy]propan-2-yl}-2-oxo-1,2-dihydrospiro[indole-3,4′-piperidine]-5-carbonitrile], the EC50 [1, 3] was 226 nM and the EC50 ([2]; HEK293 overexpressing APOL1 G2) was 198 nM.
With `CN1C(=O)C2(CCN(CCOc3ccc(C4(S(C)(=O)=O)CC(O)C4)cc3)CC2)c2cc(C(F)F)ccc21` (single isomer, unassigned) [Compound 278, 5-(difluoromethyl)-1-methyl-1′-(2-{4-[(cis) or (trans)-3-hydroxy-1-methanesulfonylcyclobutyl]phenoxy}ethyl)-1,2-dihydrospiro[indole-3,4′-piperidin]-2-one] the EC50 [1, 3] was 114 nM and the EC50 ([2]; HEK293 overexpressing APOL1 G2) was 23 nM.
`CS(=O)(=O)C1(c2ccc(OCCN3CCC4(CC3)C(=O)Nc3ccc(C(F)F)cc34)cc2)CC(O)C1` (single isomer, unassigned) [Compound 281, 5-(difluoromethyl)-1′-(2-{4-[(cis) or (trans)-3-hydroxy-1-methanesulfonylcyclobutyl]phenoxy}ethyl)-1,2-dihydrospiro[indole-3,4′-piperidin]-2-one] was tested, and the EC50 [1, 3] was 95.9 nM and the EC50 ([2]; HEK293 overexpressing APOL1 G2) was 56 nM.
`CC(O)c1ncc(OCCN2CCC3(CC2)C(=O)Nc2ccc(Cl)cc23)cn1` (single isomer, unassigned) [Compound 285, 5-chloro-1′-[2-({2-[(1S) or (1R)-1-hydroxyethyl]pyrimidin-5-yl}oxy)ethyl]-1,2-dihydrospiro[indole-3,4′-piperidin]-2-one] showed an EC50 [1, 3] of 547 nM and an EC50 [2, 4] of 200 nM.
In the case of `CC(O)c1ncc(OCCN2CCC3(CC2)C(=O)Nc2ccc(Cl)cc23)cn1` (single isomer, unassigned) [Compound 286, 5-chloro-1′-[2-({2-[(1R) or (1S)-1-hydroxyethyl]pyrimidin-5-yl}oxy)ethyl]-1,2-dihydrospiro[indole-3,4′-piperidin]-2-one], the EC50 [1, 5] is reported as 505 nM and the EC50 ([2]; HEK293 overexpressing APOL1 G2) is reported as 181 nM.
In the case of `CC(O)c1ncc(OCCN2CCC3(CC2)C(=O)Nc2ccc(C(F)F)cc23)cc1C(F)(F)F` (single isomer, unassigned) [Compound 287, 5-(difluoromethyl)-1′-[2-({6-[(1S) or (1R)-1-hydroxyethyl]-5-(trifluoromethyl)pyridin-3-yl}oxy)ethyl]-1,2-dihydrospiro[indole-3,4′-piperidin]-2-one], the EC50 [1, 3] is reported as 37.6 nM and the EC50 [2, 4] is reported as 33.5 nM.
For `CC(O)c1ncc(OCCN2CCC3(CC2)C(=O)Nc2ccc(C(F)F)cc23)cc1C(F)(F)F` (single isomer, unassigned) [Compound 288, 5-(difluoromethyl)-1′-[2-({6-[(1R) or (1S)-1-hydroxyethyl]-5-(trifluoromethyl)pyridin-3-yl}oxy)ethyl]-1,2-dihydrospiro[indole-3,4′-piperidin]-2-one], the EC50 [1, 5] was 26.2 nM and the EC50 ([2]; HEK293 overexpressing APOL1 G2) was 34.1 nM.
For `CC[C@]1(O)C[C@H](N2C(=O)CCc3cc(OCCN4CCC5(CC4)C(=O)Nc4ccc(Cl)cc45)cnc32)C1` (single isomer, unassigned) [Compound 290, 5-chloro-1′-[2-({7-oxo-8-[(trans)-3-ethyl-3-hydroxycyclobutyl]-5,6,7,8-tetrahydro-1,8-naphthyridin-3-yl}oxy)ethyl]-1,2-dihydrospiro[indole-3,4′-piperidin]-2-one], the EC50 [1, 3] was 55.5 nM and the EC50 [2, 4] was 18.2 nM.
`CC(O)c1ncc(OCCN2CCC3(CC2)C(=O)Nc2ccc(Cl)cc23)cc1C(F)(F)F` (single isomer, unassigned) [Compound 291, 5-chloro-1′-[2-({6-[(1R) or (1S)-1-hydroxyethyl]-5-(trifluoromethyl)pyridin-3-yl}oxy)ethyl]-1,2-dihydrospiro[indole-3,4′-piperidin]-2-one] was tested, and the EC50 [1, 3] was 63.1 nM and the EC50 [2, 4] was 26.4 nM.
`CC(O)c1ncc(OCCN2CCC3(CC2)C(=O)Nc2ccc(Cl)cc23)cc1C(F)(F)F` (single isomer, unassigned) [Compound 292, 5-chloro-1′-[2-({6-[(1S) or (1R)-1-hydroxyethyl]-5-(trifluoromethyl)pyridin-3-yl}oxy)ethyl]-1,2-dihydrospiro[indole-3,4′-piperidin]-2-one] gave an EC50 [1, 5] of 31.6 nM and an EC50 ([2]; HEK293 overexpressing APOL1 G2) of 23.2 nM.
With `O=C1CCc2cc(OCCN3CCC4(CC3)C(=O)Nc3ccc(Cl)cc34)cnc2N1[C@H]1C[C@@](O)(C2CC2)C1` (single isomer, unassigned) [Compound 297, 5-chloro-1′-[2-({7-oxo-8-[(trans)-3-cyclopropyl-3-hydroxycyclobutyl]-5,6,7,8-tetrahydro-1,8-naphthyridin-3-yl}oxy)ethyl]-1,2-dihydrospiro[indole-3,4′-piperidin]-2-one] the EC50 [1, 3] was 72.6 nM and the EC50 [2, 4] was 31.8 nM.
`C[C@]1(O)C[C@H](N2C(=O)CCc3cc(OCCN4CCC5(CC4)C(=O)Nc4ccc(Cl)cc45)cnc32)C1` (single isomer, unassigned) [Compound 307, 5-chloro-1′-[2-({7-oxo-8-[(trans)-3-hydroxy-3-methylcyclobutyl]-5,6,7,8-tetrahydro-1,8-naphthyridin-3-yl}oxy)ethyl]-1,2-dihydrospiro[indole-3,4′-piperidin]-2-one] was tested, and the EC50 [1, 3] was 65.7 nM and the EC50 [2, 4] was 20.4 nM.
With `CS(=O)(=O)c1ccc(OCCN2CCC3(CC2)C(=O)N(CCO)c2ccc(Cl)cc23)cc1` [Compound 18, 5-chloro-1-(2-hydroxyethyl)-1′-[2-(4-methanesulfonylphenoxy)ethyl]-1,2-dihydrospiro[indole-3,4′-piperidin]-2-one] the EC50 [1, 3] was 690 nM and the EC50 [2, 4] was 225 nM.
Molecule `COCCN1C(=O)C2(CCN(CCOc3ccc(S(C)(=O)=O)cc3)CC2)c2cc(Cl)ccc21` [Compound 20, 5-chloro-1′-[2-(4-methanesulfonylphenoxy)ethyl]-1-(2-methoxyethyl)-1,2-dihydrospiro[indole-3,4′-piperidin]-2-one] has an EC50 [1, 3] of 798 nM and an EC50 [2, 4] of 294 nM.
`CN1C(=O)C2(CCN(CCOc3ccc(S(=O)(=O)CCCS(C)(=O)=O)cc3)CC2)c2cc(Cl)ccc21` [Compound 23, 5-chloro-1′-{2-[4-(3-methanesulfonylpropanesulfonyl)phenoxy]ethyl}-1-methyl-1,2-dihydrospiro[indole-3,4′-piperidin]-2-one] was tested, and the EC50 [1, 3] was 321 nM and the EC50 [2, 4] was 135 nM.
`CS(=O)(=O)c1ccc(OCCN2CCC3(CC2)C(=O)N(CCO)c2ccc(Br)cc23)cc1` [Compound 24, 5-bromo-1-(2-hydroxyethyl)-1′-[2-(4-methanesulfonylphenoxy)ethyl]-1,2-dihydrospiro[indole-3,4′-piperidin]-2-one] gave an EC50 [1, 3] of 513 nM and an EC50 [2, 4] of 240 nM.
Work on `COCCN1C(=O)C2(CCN(CCOc3ccc(S(C)(=O)=O)cc3)CC2)c2cc(C#N)ccc21` [Compound 25, 1′-[2-(4-methanesulfonylphenoxy)ethyl]-1-(2-methoxyethyl)-2-oxo-1,2-dihydrospiro[indole-3,4′-piperidine]-5-carbonitrile] yielded an EC50 [1, 3] of over 4000 nM and an EC50 [2, 4] of 1310 nM.
